Assay results taken from US7176313B2, “Anti acid-fast bacterial agent containing pyridonecarboxylic acids as active ingredient” (Daiichi Pharmaceutical Co., Ltd., priority 2000, dated 2007).
Values after ≈ are worked out from the molar mass of the structure shown. Read-outs that look alike come from different tables or passages of the source.

Experiments:
[1] = test system: Mycobacterium tuberculosis (RFP sensitive); experiment: Antibacterial activity (MIC) against Mycobacterium tuberculosis (RFP sensitive); format: cell-based
M. avium = experiment: Antibacterial activity (MIC) against M. avium; format: cell-based, Mycobacterium avium
Experimental: Antibacterial activity of the compounds of the invention was measured in accordance with the method described in the literature of Antimicrob. […] In the tables, “OFLX” is an abbreviation of “OFLOXAIN”.

M. intracellulare = experiment: Antibacterial activity (MIC) against M. intracellulare; format: cell-based, Mycobacterium intracellulare
Experimental: Antibacterial activity of the compounds of the invention was measured in accordance with the method described in the literature of Antimicrob. Agents and Chemother., 38, 2877 (1994), and the results are shown in Tables 3 to 8 in terms of MIC (μg/ml). In the tables, “OFLX” is an abbreviation of “OFLOXAIN”.

reticulocytes (RC) = experiment: Peripheral blood micronucleus test; format: in vivo, Male Slc:ddY mice; details: mice, intravenous; for MNRC (%) mean ±S.E. 24 hours: 24 hours after administration; for MNRC (%) mean ±S.E. 48 hours: 48 hours after administration; for micronucleus induction: (untreated control: 0.12±0.08)
Experimental: Peripheral Blood Micronucleus Test
Used animals and administration method are similar to those in the mouse acute toxicity test. Samples were prepared by collecting 5 μl each of blood sample from the tail vein at 24 and 48 hours after the administration, dropping the blood on a slide at which 0.1% acridine orange solution had been applied in advance, sealing the slide with a cover glass immediately, and allowing it to stand in a refrigerator for 24 hours.

[2] = Mouse acute toxicity test; format: in vivo, Male Slc:ddY mice; details: intravenous; for survival of mice after administration / acute toxicity: text summary of Table 9; for Mortality (dead/ test) / acute toxicity: mice
Experimental: Mouse Acute Toxicity Test
Male Slc:ddY mice at age of 5-weeks were used as test animals. For dissolving the compounds, 0.1 mol/l NaOH (in saline) was used. Mice were administered intravenously at a rate of 0.1 ml/30 seconds at a dosing volume of 10 ml/kg.

[3] = M. tuberculosis Kurono, Table 5
[4] = M. tuberculosis No. 40, Table 5
[5] = M. tuberculosis No. 68, Table 5
[6] = M. intracellulare N-294, Table 3
[7] = M. intracellulare N-313, Table 3
[8] = M. intracellulare N-338, Table 3
[9] = M. intracellulare N-345, Table 3
[10] = Mycobacterium tuberculosis, H37RV, M. tuberculosis H37Rv, Table 5, read-out: MIC
[11] = Mycobacterium tuberculosis, M. tuberculosis Kurono, Table 5, read-out: MIC
[12] = Mycobacterium tuberculosis, M. tuberculosis No. 40, Table 5, read-out: MIC
[13] = Mycobacterium tuberculosis, M. tuberculosis No. 41, Table 5, read-out: MIC
[14] = Mycobacterium tuberculosis, M. tuberculosis No. 43, Table 5, read-out: MIC
[15] = Mycobacterium tuberculosis, M. tuberculosis No. 68, Table 5, read-out: MIC
[16] = Mycobacterium avium, M. avium N-357, Table 3, read-out: MIC
[17] = Mycobacterium avium, M. avium N-458, Table 3, read-out: MIC
[18] = Mycobacterium intracellulare, M. intracellulare N-313, Table 3, read-out: MIC
[19] = Mycobacterium intracellulare, M. intracellulare N-294, Table 3, read-out: MIC
[20] = M. tuberculosis H37Rv, Table 6 (series 2)
[21] = M. tuberculosis Kurono, Table 6 (series 2)
[22] = M. tuberculosis No. 40, Table 6 (series 2)
[23] = M. tuberculosis No. 41, Table 6 (series 2)
[24] = M. tuberculosis No. 43, Table 6 (series 2)
[25] = M. tuberculosis No. 68, Table 6 (series 2)
[26] = M. avium N-357, Table 4 (series 2)
[27] = M. avium N-444, Table 4 (series 2)
[28] = M. avium N-458, Table 4 (series 2)
[29] = M. avium N-472, Table 4 (series 2)
[30] = M. intracellulare N-294, Table 4 (series 2)
[31] = M. intracellulare N-313, Table 4 (series 2)
[32] = M. intracellulare N-338, Table 4 (series 2)
[33] = M. intracellulare N-345, Table 4 (series 2)

## C[C@H]1COc2c(N3CC(N)C4(CC4)C3)c(F)cc3c(=O)c(C(=O)O)cn1c23 (stereo partly drawn) [Compd. 14]
[1]; M. tuberculosis H37Rv, Table 5
  MIC: 0.20 µg/mL (≈ 0.536 µM)
[1]; [3]
  MIC: 0.10 µg/mL (≈ 0.268 µM)
[1]; [4]
  MIC: 0.20 µg/mL (≈ 0.536 µM)
[1]; [5]
  MIC: 0.20 µg/mL (≈ 0.536 µM)
M. avium; M. avium N-357, Table 3
  MIC: 1.56 µg/mL (≈ 4.18 µM)
M. avium; M. avium N-444, Table 3
  MIC: 3.13 µg/mL (≈ 8.38 µM)
M. avium; M. avium N-458, Table 3
  MIC: 1.56 µg/mL (≈ 4.18 µM)
M. avium; M. avium N-472, Table 3
  MIC: 6.25 µg/mL (≈ 16.7 µM)
M. intracellulare; [6]
  MIC: 3.13 µg/mL (≈ 8.38 µM)
M. intracellulare; [7]
  MIC: 0.78 µg/mL (≈ 2.09 µM)
M. intracellulare; [8]
  MIC: 6.25 µg/mL (≈ 16.7 µM)
M. intracellulare; [9]
  MIC: 6.25 µg/mL (≈ 16.7 µM)

## COc1c(N2CCN(C)CC2)c(F)cc2c(=O)c(C(=O)O)cn([C@@H]3C[C@@H]3F)c12 [Compd. 15, 6-Fluoro-1-[2-(S)-fluoro-1-(R)-cyclopropyl]-1,4-dihydro-8-methoxy-7-(4-methylpiperazin-1-yl)-4-oxoquinoline-3-carboxylic acid]
[1]; [10]
  MIC: 0.1 µg/mL (≈ 0.254 µM)
[1]; [11]
  MIC: 0.05 µg/mL (≈ 0.127 µM)
[1]; [12]
  MIC: 0.05 µg/mL (≈ 0.127 µM)
[1]; [13]
  MIC: 0.025 µg/mL (≈ 0.0636 µM)
[1]; [14]
  MIC: 0.39 µg/mL (≈ 0.991 µM)
[1]; [15]
  MIC: 0.1 µg/mL (≈ 0.254 µM)
M. avium; [16]
  MIC: 0.39 µg/mL (≈ 0.991 µM)
M. avium; Mycobacterium avium, M. avium N-444, Table 3, read-out: MIC
  MIC: 0.78 µg/mL (≈ 1.98 µM)
M. avium; [17]
  MIC: 0.2 µg/mL (≈ 0.508 µM)
M. avium; Mycobacterium avium, M. avium N-472, Table 3, read-out: MIC
  MIC: 1.56 µg/mL (≈ 3.97 µM)
M. intracellulare; [8]
  MIC: 1.56 µg/mL (≈ 3.97 µM)
M. intracellulare; [18]
  MIC: 0.39 µg/mL (≈ 0.991 µM)
M. intracellulare; Mycobacterium intracellulare, M. intracellulare N-345, Table 3, read-out: MIC
  MIC: 3.13 µg/mL (≈ 7.96 µM)
M. intracellulare; [19]
  MIC: 1.56 µg/mL (≈ 3.97 µM)
Reticulocytes (RC); 50 mg/kg
  MNRC (%) mean ±S.E. 24 hours: 0.20 ± 0.04%
  MNRC (%) mean ±S.E. 48 hours: 0.14 ± 0.04%
Reticulocytes (RC)
  micronucleus induction: weak
[2]
  survival of mice after administration: all mice were survived
  acute toxicity: relatively weak
[2]; 50 mg/kg
  Mortality (dead/ test): 0/5

## CCC1CN(c2c(F)cc3c(=O)c(C(=O)O)cn(C4CC4)c3c2OC)CCN1 (stereo not drawn) [Compd. 17]
[1]; [20]
  MIC: 0.12 µg/mL (≈ 0.308 µM)
[1]; [21]
  MIC: 0.12 µg/mL (≈ 0.308 µM)
[1]; [22]
  MIC: 0.12 µg/mL (≈ 0.308 µM)
[1]; [23]
  MIC: 0.06 µg/mL (≈ 0.154 µM)
[1]; [24]
  MIC: 2.0 µg/mL (≈ 5.14 µM)
[1]; [25]
  MIC: 0.25 µg/mL (≈ 0.642 µM)
M. avium; [26]
  MIC: 1.0 µg/mL (≈ 2.57 µM)
M. avium; [27]
  MIC: 2.0 µg/mL (≈ 5.14 µM)
M. avium; [28]
  MIC: 1.0 µg/mL (≈ 2.57 µM)
M. avium; [29]
  MIC: 8.0 µg/mL (≈ 20.5 µM)
M. intracellulare; [30]
  MIC: 2.0 µg/mL (≈ 5.14 µM)
M. intracellulare; [31]
  MIC: 0.25 µg/mL (≈ 0.642 µM)
M. intracellulare; [32]
  MIC: 1.0 µg/mL (≈ 2.57 µM)
M. intracellulare; [33]
  MIC: 1.0 µg/mL (≈ 2.57 µM)

## CCC1CN(c2c(F)cc3c(=O)c(C(=O)O)cn(C4CC4F)c3c2OC)CCN1 (stereo not drawn) [Compd. 18]
[1]; [20]
  MIC: 0.12 µg/mL (≈ 0.295 µM)
[1]; [21]
  MIC: 0.12 µg/mL (≈ 0.295 µM)
[1]; [22]
  MIC: 0.12 µg/mL (≈ 0.295 µM)
[1]; [23]
  MIC: 0.06 µg/mL (≈ 0.147 µM)
[1]; [24]
  MIC: 1.0 µg/mL (≈ 2.45 µM)
[1]; [25]
  MIC: 0.25 µg/mL (≈ 0.614 µM)
M. avium; [26]
  MIC: 0.50 µg/mL (≈ 1.23 µM)
M. avium; [27]
  MIC: 2.0 µg/mL (≈ 4.91 µM)
M. avium; [28]
  MIC: 1.0 µg/mL (≈ 2.45 µM)
M. avium; [29]
  MIC: 8.0 µg/mL (≈ 19.6 µM)
M. intracellulare; [30]
  MIC: 2.0 µg/mL (≈ 4.91 µM)
M. intracellulare; [31]
  MIC: 0.25 µg/mL (≈ 0.614 µM)
M. intracellulare; [32]
  MIC: 0.50 µg/mL (≈ 1.23 µM)
M. intracellulare; [33]
  MIC: 0.50 µg/mL (≈ 1.23 µM)

## C[C@H]1COc2c(N3CCN[C@@H](c4ccccc4)C3)c(F)cc3c(=O)c(C(=O)O)cn1c23 [Compd. 27, 9-Fluoro-2,3-dihydro-3-(S)-methyl-7-oxo-10-[3-(S)-phenyl-1-piperazinyl]-7H-pyrido[1.2.3-de][1,4]benzoxazine-6-carboxylic acid]
Reticulocytes (RC); 100 mg/kg
  MNRC (%) mean ±S.E. 24 hours: 0.20 ± 0.03%
  MNRC (%) mean ±S.E. 48 hours: 0.18 ± 0.04%
Reticulocytes (RC)
  micronucleus induction: weak
[2]
  survival of mice after administration: all mice were survived
  acute toxicity: relatively weak
[2]; 100 mg/kg
  Mortality (dead/ test): 0/5

## CC1COc2c(N3CCN(C)CC3)c(F)cc3c(=O)c(C(=O)O)cn1c23 (stereo not drawn) [OFLX, OFLOXAIN, reference compound]
[1]; M. tuberculosis H37Rv, Table 5
  MIC: 0.39 µg/mL (≈ 1.08 µM)
[1]; [20]
  MIC: 1.0 µg/mL (≈ 2.77 µM)
[1]; [3]
  MIC: 0.39 µg/mL (≈ 1.08 µM)
[1]; [21]
  MIC: 0.50 µg/mL (≈ 1.38 µM)
[1]; [4]
  MIC: 0.39 µg/mL (≈ 1.08 µM)
[1]; [22]
  MIC: 1.0 µg/mL (≈ 2.77 µM)
[1]; M. tuberculosis No. 41, Table 5
  MIC: 0.10 µg/mL (≈ 0.277 µM)
[1]; [23]
  MIC: 0.25 µg/mL (≈ 0.692 µM)
[1]; [24]
  MIC: 8.0 µg/mL (≈ 22.1 µM)
[1]; [5]
  MIC: 0.39 µg/mL (≈ 1.08 µM)
[1]; [25]
  MIC: 1.0 µg/mL (≈ 2.77 µM)
M. avium; M. avium N-357, Table 3
  MIC: 3.13 µg/mL (≈ 8.66 µM)
M. avium; [26]
  MIC: 4.0 µg/mL (≈ 11.1 µM)
M. avium; M. avium N-444, Table 3
  MIC: 25 µg/mL (≈ 69.2 µM)
M. avium; [27]
  MIC: 32 µg/mL (≈ 88.6 µM)
M. avium; M. avium N-458, Table 3
  MIC: 3.13 µg/mL (≈ 8.66 µM)
M. avium; [28]
  MIC: 4.0 µg/mL (≈ 11.1 µM)
M. avium; M. avium N-472, Table 3
  MIC: 50 µg/mL (≈ 138 µM)
M. avium; [29]
  MIC: 128 µg/mL (≈ 354 µM)
M. intracellulare; [6]
  MIC: 12.5 µg/mL (≈ 34.6 µM)
M. intracellulare; [30]
  MIC: 8.0 µg/mL (≈ 22.1 µM)
M. intracellulare; [7]
  MIC: 6.25 µg/mL (≈ 17.3 µM)
M. intracellulare; [31]
  MIC: 1.0 µg/mL (≈ 2.77 µM)
M. intracellulare; [8]
  MIC: 25 µg/mL (≈ 69.2 µM)
M. intracellulare; [32]
  MIC: 2.0 µg/mL (≈ 5.53 µM)
M. intracellulare; [9]
  MIC: 25 µg/mL (≈ 69.2 µM)
M. intracellulare; [33]
  MIC: 2.0 µg/mL (≈ 5.53 µM)

## CO[C@H]1/C=C/O[C@@]2(C)Oc3c(C)c(O)c4c(O)c(c(/C=N/N5CCN(C)CC5)c(O)c4c3C2=O)NC(=O)/C(C)=C\C=C\[C@H](C)[C@H](O)[C@@H](C)[C@@H](O)[C@@H](C)[C@H](OC(C)=O)[C@@H]1C [RFP, rifampicin, reference compound]
[1]; [10]
  MIC: 0.2 µg/mL (≈ 0.243 µM)
[1]; [11]
  MIC: 0.1 µg/mL (≈ 0.122 µM)
[1]; [12]
  MIC: 0.1 µg/mL (≈ 0.122 µM)
[1]; [13]
  MIC: 0.05 µg/mL (≈ 0.0608 µM)
[1]; [14]
  MIC: 3.13 µg/mL (≈ 3.8 µM)
[1]; [15]
  MIC: 3.13 µg/mL (≈ 3.8 µM)
M. avium; [16]
  MIC: 50 µg/mL (≈ 60.8 µM)
M. avium; [17]
  MIC: 100 µg/mL (≈ 122 µM)
M. intracellulare; [8]
  MIC: 3.13 µg/mL (≈ 3.8 µM)
M. intracellulare; [9]
  MIC: 3.13 µg/mL (≈ 3.8 µM)
M. intracellulare; [18]
  MIC: 0.78 µg/mL (≈ 0.948 µM)
M. intracellulare; [19]
  MIC: 3.13 µg/mL (≈ 3.8 µM)
